Assay results taken from ChEMBL document CHEMBL1144284, “Pharmacophore identification of alpha(1A)-adrenoceptor antagonists” (Bioorg Med Chem Lett, 2005).

Biological target: T1, Alpha-1A adrenergic receptor (Homo sapiens, UniProt P35348)
T1 sequence (P35348 whole entry): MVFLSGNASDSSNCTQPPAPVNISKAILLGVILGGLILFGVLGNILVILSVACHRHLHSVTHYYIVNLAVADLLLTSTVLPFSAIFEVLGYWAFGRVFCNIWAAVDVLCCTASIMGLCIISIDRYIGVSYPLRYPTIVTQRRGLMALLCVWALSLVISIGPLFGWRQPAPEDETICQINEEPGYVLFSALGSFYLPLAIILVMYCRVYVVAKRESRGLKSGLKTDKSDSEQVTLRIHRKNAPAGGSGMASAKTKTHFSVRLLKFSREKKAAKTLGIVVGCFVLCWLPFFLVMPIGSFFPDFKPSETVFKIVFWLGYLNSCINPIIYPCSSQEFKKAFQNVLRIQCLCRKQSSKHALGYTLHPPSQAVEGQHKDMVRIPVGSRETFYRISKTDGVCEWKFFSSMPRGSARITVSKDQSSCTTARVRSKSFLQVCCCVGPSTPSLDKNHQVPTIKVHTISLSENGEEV
Assay: Binding constant measured against Alpha-1A adrenergic receptor in human prostate; +++:highly active
Format: tissue-based, Prostate gland

SMILES	Ki
COc1cccc(OC)c1OCCNC[C@@H]1Oc2ccccc2O[C@H]1c1ccc(C)cc1	0.35 nM
CC(C)(Cc1c[nH]c2ccc(Cl)cc12)NCCOc1ccccc1OCC1CC1	0.6 nM
CC(C)Oc1ccccc1N1CCN(CCCNC(=O)CN2CCCCC2=O)CC1 [RWJ-69736]	0.65 nM
COc1cccc(OC)c1OCCNC[C@H]1CSc2ccccc2O1	0.2 nM
C[C@H](Cc1cc2c(c(C(N)=O)c1)N(CCCO)CC2)NCCOc1ccccc1OCC(F)(F)F [SILODOSIN]	0.036 nM
COCC1=C(C(=O)OC)[C@H](c2ccc(F)c(F)c2)N(C(=O)NCCCN2CCC(c3ccccn3)CC2)C(=O)N1	0.36 nM

Biological target: T1, Alpha-1A adrenergic receptor
Assay: Binding constant measured against Alpha-1A adrenergic receptor in human prostate; +:inactive
Format: tissue-based, Prostate gland

SMILES	Ki
C[C@H](CN1CCN(c2cc(F)c(F)cc2F)CC1)N1C(=O)CC2(CCCC2)CC1=O	290 nM
CCS(=O)(=O)Nc1cccc(C(=C2CCCCC2)c2c[nH]cn2)c1	490 nM
COc1cc2c3c(c1OC)-c1cc4c(cc1C[C@@H]3N(C)CC2)OCO4	430 nM
N=C(CC(O)COc1ccccc1-c1ccccc1)N1CCCCC1 (stereo not given)	2500 nM

Biological target: T1, Alpha-1A adrenergic receptor
Assay: Binding constant measured against Alpha-1A adrenergic receptor in human prostate; ++:moderately active
Format: tissue-based, Prostate gland

SMILES	Ki
CC(C)Oc1ccccc1N1CCN(CCNC(=O)CN2CCCCC2=O)CC1 [RWJ-38063]	9.3 nM
CCOC(=O)C1CCC(=O)N1CC(=O)CCN1CCN(c2ccccc2OC(C)C)CC1 (stereo not given)	59 nM
C[C@@]1(O)C(=O)N(CCCN2CCN(c3ccc(F)cc3OCC(F)(F)F)CC2)C(=O)N[C@@H]1O	5 nM
COc1ccccc1N1CCN(CC(O)COc2cccc3ccccc23)CC1 (stereo not given) [NAFTOPIDIL]	3.7 nM
O=C(CCCN1CCC2(CC1)C(=O)NCN2c1ccccc1)c1ccc(F)cc1 [SPIPERONE]	7.9 nM
COc1cccc(OC)c1OCCNCC1Oc2ccccc2OC1c1ccc(C)cc1 (stereo not given)	4.1 nM
CC(C)Oc1ccccc1N1CCN(CCNC(=O)CN2CCCCCC2=O)CC1 [RWJ-68157]	22 nM
COc1ccccc1N1CCN(CCN2C(=O)c3ccccc3C(C)(C)C2=O)CC1	1 nM
N=C(Nc1ccccc1)N1CCN(/C=C2/N=C(c3cccc4ccccc34)OC2=O)CC1	41 nM
COc1ccc(Cl)cc1N1CCN(CCCNc2nccc(C(N)=O)n2)CC1	2 nM
